Laboratory results published in patent US9988341B2, “Bacterial topoisomerase inhibitors and use thereof” (THE FLORIDA INTERNATIONAL UNIVERSITY BOARD OF TRUSTEES, priority 2016, dated 2018).
Values after ≈ are worked out from the molar mass of the structure shown.

Columns and labels:
[1] = target: E. coli topoisomerase I (Escherichia coli, UniProt P06612); test: Bacterial topoisomerase I relaxation activity inhibition assay (EcTopI); assay type: biochemical
Procedure: The relaxation activity of bacterial topoisomerase I was assayed in a buffer containing 10 mM Tris-HCl, pH 8.0, 50 mM NaCl, 0.1 mg/mL gelatin, and 0.5 mM MgCl2. One microliter of the compounds dissolved in DMF (dimethylformamide) or solvent alone was mixed with 10 μl of the reaction buffer containing 10 ng of enzyme before the addition of 9 μl of reaction buffer containing 160 ng of supercoiled pBAD/Thio plasmid DNA purified by cesium chloride gradient as substrate. Following incubation at 37° C. for 30 min, the reactions were terminated by the addition of 4 μl of 50% glycerol, 50 mM EDTA, and 0.5% (v/v) bromophenol blue, and analyzed by agarose gel electrophoresis. The gels were stained in ethidium bromide and photographed under UV light.

[2] = target: M. tuberculosis topoisomerase I (Mycobacterium tuberculosis, UniProt P9WG49); test: biochemical; conditions: Table 3; read-out: MtbTopI IC50
[3] = system: M. smegmatis mc2 155; test: M. smegmatis growth inhibition (MIC); assay type: cell-based; conditions: Mycolicibacterium smegmatis, MC2155
[4] = system: Mtb-lux; assay type: cell-based, M. tuberculosis
[5] = system: M. smegmatis mc2 155/pTA-noI; test: microbe, parasite or virus in culture; assay type: cell-based; conditions: Mycolicibacterium smegmatis, MC2155, read-out: MIC, M. smegmatis mc2 155/pTA-noI
[6] = system: Mtb CDC1551 Mtb::lux; test: microbe, parasite or virus in culture; assay type: cell-based, M. tuberculosis; conditions: Mycobacterium tuberculosis, 120 h; 50% reduction in luminescence signal compared to controls; 5 days
[7] = Resazurin-based cytotoxicity assay; conditions: mouse, J774 macrophages, 50% loss of viability in J774 macrophage cell line after 24 hr exposure
Procedure: (§1) J774 macrophages were cultured in Dulbeco's minimal essential medium (DMEM) supplemented with 10% heat inactivated fetal bovine serum. One day prior to performing the assay 2.5×10^4 cells were seeded on black 384 well. Compounds and controls (0.4% DMSO and 2% Triton X final concentrations) were added 6 hr after seeding. Survival was determined after 24 hr by resazurin reduction measurement. Addition of 0.02 mg/mL resazurin was followed by 4 hours incubation at 37° C. and subsequent fluorescence reading (530 nm/590 nm) using a Synergy H4 (BioTek) plate reader. Data are presented as a percent viability compared to the vehicle (0.4% DMSO) control with 100% being noncytotoxic.

[8] = system: J774 macrophages; test: Resazurin-based cytotoxicity assay; conditions: 50% loss of viability in J774 macrophage cell line after 24 hr exposure
Procedure: as §1

[9] = target: MtbTopI (Mycobacterium tuberculosis, UniProt P9WG49); test: Anisotropy assay of DNA binding by MtbTopI; conditions: compounds at their IC50 concentrations
[10] = system: Mtb::lux; assay type: cell-based, M. tuberculosis; conditions: at higher concentrations; data not shown
[11] = system: M. smegmatis; test: M. smegmatis loss of viability (viable colony counts); assay type: cell-based
[12] = system: HEK; test: HEK toxicity
[13] = target: T1, E. coli DNA gyrase (Escherichia coli, UniProt P0AES4+P0AES6); test: DNA gyrase supercoiling inhibition assay; assay type: biochemical
T1 construct: purchased New England BioLabs
Procedure: DNA gyrase (obtained from New England BioLabs) supercoiling assays were carried out by mixing the compounds with 2 U of the enzyme in reaction buffer supplied by the manufacturer, followed by the addition of 300 ng of relaxed covalently closed circular DNA was for a final reaction volume of 20 μL. The samples were incubated at 37° C. for 30 minutes before being terminated by the addition of a buffer containing 5% SDS, 0.25% bromophenol blue, and 25% glycerol. The reactions were then analyzed by agarose gel electrophoresis.

[14] = target: T2, Human topoisomerase I (Homo sapiens, UniProt P11387); test: Human topoisomerase I relaxation inhibition assay; assay type: biochemical
T2 construct: purchased TopoGen
T2 sequence (P11387 1-765): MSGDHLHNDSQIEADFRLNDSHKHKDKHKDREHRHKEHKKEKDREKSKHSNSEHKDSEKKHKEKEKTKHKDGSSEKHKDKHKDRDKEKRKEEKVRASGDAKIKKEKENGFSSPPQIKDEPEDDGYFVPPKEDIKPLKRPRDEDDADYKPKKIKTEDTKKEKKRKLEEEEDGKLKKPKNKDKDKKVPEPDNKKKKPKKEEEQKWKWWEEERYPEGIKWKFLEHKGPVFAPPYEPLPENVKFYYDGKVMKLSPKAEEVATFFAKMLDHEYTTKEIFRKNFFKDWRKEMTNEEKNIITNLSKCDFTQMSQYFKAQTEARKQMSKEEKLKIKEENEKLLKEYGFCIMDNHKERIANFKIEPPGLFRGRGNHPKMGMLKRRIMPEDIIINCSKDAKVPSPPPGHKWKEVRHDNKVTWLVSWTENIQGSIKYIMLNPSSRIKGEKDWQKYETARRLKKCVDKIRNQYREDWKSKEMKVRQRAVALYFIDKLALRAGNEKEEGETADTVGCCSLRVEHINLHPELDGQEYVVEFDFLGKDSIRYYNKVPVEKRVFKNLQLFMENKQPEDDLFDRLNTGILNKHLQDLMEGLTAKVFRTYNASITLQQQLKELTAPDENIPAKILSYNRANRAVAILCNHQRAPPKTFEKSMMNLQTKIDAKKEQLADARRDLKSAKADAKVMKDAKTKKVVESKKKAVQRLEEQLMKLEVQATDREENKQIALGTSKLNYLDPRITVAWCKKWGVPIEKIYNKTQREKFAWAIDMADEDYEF
Procedure: Human topoisomerase I (obtained from TopoGen) relaxation assays were carried out with 0.5 U of enzyme in reaction buffer supplied by the manufacturer. The enzyme was mixed with the indicated concentration of compound dissolved before 160 ng of supercoiled pBAD/Thio plasmid DNA was added in the same buffer, for a final volume of 20 μL. Following incubation at 37° C. for 30 minutes, the reactions were terminated with a buffer containing 5% SDS, 0.25% bromophenol blue, and 25% glycerol, and analyzed by agarose gel electrophoresis.

[15] = target: T3, Human Topoisomerase IIα (Homo sapiens, UniProt P11388); test: Human topoisomerase IIα decatenation inhibition assay; assay type: biochemical
T3 construct: purchased TopoGen
Procedure: Human Topoisomerase IIα (obtained from TopoGen) assays were carried out by adding the compounds to 180 ng of kinetoplast DNA (kDNA) in the buffer supplied by the manufacturer before the addition of 2 U of the enzyme. The samples were incubated for 15 minutes at 37° C. before the addition of 4 μl of stop buffer containing 5% sarkosyl, 0.0025% bromophenol blue, and 25% glycerol. The reactions were then analyzed by electrophoresis in 1% agarose gels containing 0.5 μg ml^−1 ethidium bromide before being photographed under UV light.

E. coli topoisomerase I, sequence (P06612 whole entry): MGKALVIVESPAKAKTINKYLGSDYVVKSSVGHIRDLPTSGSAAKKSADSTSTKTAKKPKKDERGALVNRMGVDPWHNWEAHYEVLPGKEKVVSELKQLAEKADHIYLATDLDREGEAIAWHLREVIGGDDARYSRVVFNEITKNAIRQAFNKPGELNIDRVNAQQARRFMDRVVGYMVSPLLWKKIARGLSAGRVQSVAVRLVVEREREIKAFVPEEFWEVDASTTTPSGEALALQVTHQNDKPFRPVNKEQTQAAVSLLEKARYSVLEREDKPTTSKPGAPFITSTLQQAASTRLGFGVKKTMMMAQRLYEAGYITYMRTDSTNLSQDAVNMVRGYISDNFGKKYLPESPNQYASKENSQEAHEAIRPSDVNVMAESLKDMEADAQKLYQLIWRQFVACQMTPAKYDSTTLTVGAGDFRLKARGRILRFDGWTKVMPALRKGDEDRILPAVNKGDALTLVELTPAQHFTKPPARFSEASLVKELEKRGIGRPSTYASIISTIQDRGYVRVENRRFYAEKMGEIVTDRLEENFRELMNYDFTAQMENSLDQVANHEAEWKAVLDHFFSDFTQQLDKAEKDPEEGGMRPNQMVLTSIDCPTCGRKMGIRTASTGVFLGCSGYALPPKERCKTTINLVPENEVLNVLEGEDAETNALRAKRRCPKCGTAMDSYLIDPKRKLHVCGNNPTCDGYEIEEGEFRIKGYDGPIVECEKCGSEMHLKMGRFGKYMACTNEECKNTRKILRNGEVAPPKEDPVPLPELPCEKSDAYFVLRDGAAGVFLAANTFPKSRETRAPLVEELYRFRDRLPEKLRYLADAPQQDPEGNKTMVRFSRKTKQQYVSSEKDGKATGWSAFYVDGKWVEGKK
M. tuberculosis topoisomerase I, sequence (P9WG49 whole entry): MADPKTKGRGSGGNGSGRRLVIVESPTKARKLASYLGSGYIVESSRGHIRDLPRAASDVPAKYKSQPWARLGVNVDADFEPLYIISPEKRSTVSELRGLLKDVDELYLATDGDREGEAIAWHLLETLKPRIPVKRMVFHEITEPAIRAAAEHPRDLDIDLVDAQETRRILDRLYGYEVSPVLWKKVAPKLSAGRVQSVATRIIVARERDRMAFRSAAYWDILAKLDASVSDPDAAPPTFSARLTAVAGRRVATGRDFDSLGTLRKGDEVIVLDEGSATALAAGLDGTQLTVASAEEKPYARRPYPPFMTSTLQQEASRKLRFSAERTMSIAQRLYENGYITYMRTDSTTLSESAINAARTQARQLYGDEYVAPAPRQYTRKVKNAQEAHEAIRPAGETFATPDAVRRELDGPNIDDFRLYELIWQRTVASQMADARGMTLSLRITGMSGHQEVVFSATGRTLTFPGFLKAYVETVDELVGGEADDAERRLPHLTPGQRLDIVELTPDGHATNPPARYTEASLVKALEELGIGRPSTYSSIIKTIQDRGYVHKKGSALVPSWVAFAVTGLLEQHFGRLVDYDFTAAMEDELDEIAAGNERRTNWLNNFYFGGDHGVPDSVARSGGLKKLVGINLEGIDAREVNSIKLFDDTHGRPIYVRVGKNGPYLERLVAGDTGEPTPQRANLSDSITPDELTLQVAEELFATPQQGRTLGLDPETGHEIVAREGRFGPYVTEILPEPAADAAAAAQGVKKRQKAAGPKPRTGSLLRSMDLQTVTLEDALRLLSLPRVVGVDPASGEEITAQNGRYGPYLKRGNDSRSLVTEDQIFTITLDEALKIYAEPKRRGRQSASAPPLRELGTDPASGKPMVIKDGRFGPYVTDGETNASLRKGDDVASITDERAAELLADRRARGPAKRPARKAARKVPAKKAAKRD
T1 sequence (P0AES4 whole entry, one chain of several): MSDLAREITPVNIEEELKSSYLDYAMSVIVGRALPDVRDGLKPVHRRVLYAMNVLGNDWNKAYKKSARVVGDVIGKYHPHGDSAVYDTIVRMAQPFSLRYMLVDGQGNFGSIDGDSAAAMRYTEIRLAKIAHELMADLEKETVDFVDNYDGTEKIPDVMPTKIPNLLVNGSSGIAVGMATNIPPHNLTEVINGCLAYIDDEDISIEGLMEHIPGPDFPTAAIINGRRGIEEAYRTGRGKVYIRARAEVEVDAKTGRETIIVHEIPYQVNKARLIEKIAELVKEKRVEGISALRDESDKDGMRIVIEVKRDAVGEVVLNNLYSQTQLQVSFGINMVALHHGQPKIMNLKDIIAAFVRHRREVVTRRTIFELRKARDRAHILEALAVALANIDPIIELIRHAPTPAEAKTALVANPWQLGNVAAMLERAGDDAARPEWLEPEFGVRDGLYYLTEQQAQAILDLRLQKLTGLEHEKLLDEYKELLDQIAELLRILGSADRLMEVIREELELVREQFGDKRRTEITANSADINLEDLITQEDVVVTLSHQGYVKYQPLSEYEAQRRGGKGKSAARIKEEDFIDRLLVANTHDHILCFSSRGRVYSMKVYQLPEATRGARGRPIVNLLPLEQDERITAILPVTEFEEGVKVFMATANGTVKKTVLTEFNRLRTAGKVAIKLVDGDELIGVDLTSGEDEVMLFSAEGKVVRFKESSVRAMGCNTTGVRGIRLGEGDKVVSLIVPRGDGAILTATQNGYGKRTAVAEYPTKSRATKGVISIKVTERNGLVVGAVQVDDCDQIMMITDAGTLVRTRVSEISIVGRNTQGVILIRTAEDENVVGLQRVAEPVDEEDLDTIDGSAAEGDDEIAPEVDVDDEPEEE
T3 sequence (P11388 whole entry): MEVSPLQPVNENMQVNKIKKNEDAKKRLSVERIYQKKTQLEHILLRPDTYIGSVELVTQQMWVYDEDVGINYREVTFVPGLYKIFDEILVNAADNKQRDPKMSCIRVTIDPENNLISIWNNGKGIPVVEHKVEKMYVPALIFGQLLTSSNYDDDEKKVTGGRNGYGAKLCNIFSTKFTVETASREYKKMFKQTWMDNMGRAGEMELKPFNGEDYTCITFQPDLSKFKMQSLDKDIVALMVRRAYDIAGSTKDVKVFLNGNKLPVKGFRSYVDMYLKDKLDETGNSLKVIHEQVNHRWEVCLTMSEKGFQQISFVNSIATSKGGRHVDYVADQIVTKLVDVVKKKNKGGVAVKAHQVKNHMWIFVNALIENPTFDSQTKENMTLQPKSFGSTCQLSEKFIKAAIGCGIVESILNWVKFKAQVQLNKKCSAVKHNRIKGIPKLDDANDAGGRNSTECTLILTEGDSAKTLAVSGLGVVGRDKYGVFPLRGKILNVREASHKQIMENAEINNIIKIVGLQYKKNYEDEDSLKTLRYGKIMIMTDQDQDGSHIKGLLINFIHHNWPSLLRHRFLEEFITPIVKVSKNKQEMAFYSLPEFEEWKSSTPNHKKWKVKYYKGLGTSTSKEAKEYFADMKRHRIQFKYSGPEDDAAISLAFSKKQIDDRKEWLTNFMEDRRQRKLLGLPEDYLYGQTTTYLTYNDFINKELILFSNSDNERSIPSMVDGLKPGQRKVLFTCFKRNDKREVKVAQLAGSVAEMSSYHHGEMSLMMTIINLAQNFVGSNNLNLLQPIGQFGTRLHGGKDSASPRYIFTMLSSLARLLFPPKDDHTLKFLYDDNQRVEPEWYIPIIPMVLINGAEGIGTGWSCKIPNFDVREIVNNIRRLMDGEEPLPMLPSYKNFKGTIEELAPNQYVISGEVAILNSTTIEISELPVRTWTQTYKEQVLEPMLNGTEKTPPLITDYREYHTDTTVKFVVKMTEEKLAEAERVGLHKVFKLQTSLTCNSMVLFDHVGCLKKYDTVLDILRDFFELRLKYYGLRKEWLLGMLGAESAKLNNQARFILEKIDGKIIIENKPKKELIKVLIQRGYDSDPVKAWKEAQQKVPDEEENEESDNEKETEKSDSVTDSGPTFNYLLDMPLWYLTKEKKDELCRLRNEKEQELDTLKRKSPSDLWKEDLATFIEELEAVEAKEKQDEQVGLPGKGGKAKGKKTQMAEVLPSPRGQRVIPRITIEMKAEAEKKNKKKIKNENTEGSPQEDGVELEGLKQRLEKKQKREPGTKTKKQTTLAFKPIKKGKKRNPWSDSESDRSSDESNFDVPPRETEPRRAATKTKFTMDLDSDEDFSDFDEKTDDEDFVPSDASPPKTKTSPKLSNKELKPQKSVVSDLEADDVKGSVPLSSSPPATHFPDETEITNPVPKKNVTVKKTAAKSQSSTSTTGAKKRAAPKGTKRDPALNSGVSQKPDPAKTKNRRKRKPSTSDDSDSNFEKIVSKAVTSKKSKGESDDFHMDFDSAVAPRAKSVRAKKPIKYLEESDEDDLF

Compound	IC50 [1] [µM]	IC50 [2] [µM]	MIC [3] [µM]	Percent Mtb-lux killing 5 μg/mL [4] [%]	MIC [5] [µM]	IC50 [6] [µM]	CC50 at 24 h [7] [µM]	CC50 [8] [µM]	Effect on binding of MtbTopI to oligonucleotide substrate [9]	Reduction of Mtb CFU [10] [log]	Time course of loss of viable colony counts, control cloning vector [11]	Percent HEK toxicity 6.25 μg/mL [12] [%]	IC50 [13] [µM]	IC50 [14] [µM]	IC50 [15] [µM]
CCCC[C@@H](CN[C@H](CN)CCCCNC)NCc1cccc2ccccc12 [Compound 2471-12, (S)—N6-methyl-N2-((S)-2-(naphthalen-1-ylmethylamino)hexyl)hexane-1,2,6-triamine]	7.5	7.5	25 (≈ 9.62 µg/mL)	70.9	12.5 (≈ 4.81 µg/mL)	6.8	~100	104	did not inhibit	1	rapid killing	15.2	–	–	–
CCCC[C@@H](CN[C@H](CN)CCN)NCc1cccc2ccccc12 [Compound 2471-24, (S)—N2-((S)-2-(naphthalen-1-ylmethylamino)hexyl)butane-1,2,4-triamine]	10	7.5	50 (≈ 17.1 µg/mL)	64.3	25 (≈ 8.56 µg/mL)	8.4	~100	101	–	1	–	5.4	> 160	> 160	–
CCCC[C@@H](CN[C@@H](CN)CCCCNC)NCc1cccc2ccccc12 [Compound 2471-36]	20	15	25 (≈ 9.62 µg/mL)	99.2	–	3.3	~40	36.5	–	–	–	15.3	> 160	> 160	> 160
